Data taken from ChEMBL document CHEMBL1132027, “Trifluoromethyl ketone inhibitors of fatty acid amide hydrolase: a probe of structural and conformational features contributing to inhibition” (Bioorg Med Chem Lett, 1999).
pIC50, pKi: −log10 of the molar value.

How the values were obtained:
[1] = target: T1, Fatty-acid amide hydrolase 1 (Rattus norvegicus, UniProt P97612); experiment: Inhibitory constant against Fatty-acid amide hydrolase (FAAH) in rat liver; format: tissue-based
T1 sequence (P97612 whole entry): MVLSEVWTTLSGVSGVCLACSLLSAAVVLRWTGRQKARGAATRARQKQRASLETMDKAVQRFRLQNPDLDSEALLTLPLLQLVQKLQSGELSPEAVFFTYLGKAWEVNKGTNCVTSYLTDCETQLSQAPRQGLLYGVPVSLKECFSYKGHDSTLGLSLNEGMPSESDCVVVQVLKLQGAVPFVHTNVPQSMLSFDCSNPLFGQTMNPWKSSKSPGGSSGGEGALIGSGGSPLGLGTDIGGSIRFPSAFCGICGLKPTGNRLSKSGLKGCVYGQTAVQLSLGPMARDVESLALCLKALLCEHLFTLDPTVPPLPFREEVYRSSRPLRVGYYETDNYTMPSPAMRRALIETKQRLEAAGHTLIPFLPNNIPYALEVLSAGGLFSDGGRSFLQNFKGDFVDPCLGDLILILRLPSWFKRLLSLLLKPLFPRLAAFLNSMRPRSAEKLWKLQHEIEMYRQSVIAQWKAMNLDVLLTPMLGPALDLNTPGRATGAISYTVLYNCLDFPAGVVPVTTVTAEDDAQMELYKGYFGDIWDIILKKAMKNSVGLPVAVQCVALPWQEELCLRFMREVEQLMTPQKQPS

[2] = target: T1, Fatty-acid amide hydrolase 1; experiment: Inhibitory concentration against Fatty-acid amide hydrolase (FAAH) in rat liver

pKi [1] | pIC50 [2] | SMILES
6.85 | 6.12 | CCCCCCc1cccc(CCCCCCC(=O)C(F)(F)F)c1
6.24 | 5.52 | CCCCOC[C@H]1CC=CC[C@H]1COCCCC(=O)C(F)(F)F
6.49 | 5.60 | CCCCCCCCc1ccccc1CCCCCCCC(=O)C(F)(F)F
7.00 | 6.35 | O=C(CCCCCCc1ccccc1)C(F)(F)F
4.57 | 3.73 | CCCCCC(=O)C(F)(F)F
5.92 | 5.01 | CCCCOC[C@@H]1CCCC[C@H]1COCCCC(=O)C(F)(F)F
6.36 | 5.62 | CCCCOC[C@@H]1CC=CC[C@H]1COCCCC(=O)C(F)(F)F
6.31 | 5.64 | CCCCCCCCCCCCCC(=O)C(F)(F)F

More lines, now with the values behind:

SMILES | pKi [1] | pIC50 [2]
CCCCCCc1ccccc1CCCCCC(=O)C(F)(F)F | 5.55 | 4.88
CCCCCCCC/C=C/CCCCCCCC(=O)C(F)(F)F | 6.77 | 6.11
O=C(CCCCCCCc1ccccc1)C(F)(F)F | 7.60 | 6.92
CCCCCCC(=O)C(F)(F)F | 4.97 | 4.28
O=C(CCCCCc1ccccc1)C(F)(F)F | 6.77 | 6.08
CCCCCCCC(=O)C(F)(F)F | 5.92 | 5.18
CCCCCCCC/C=C\CCCCCCCC(=O)C(F)(F)F | 7.09 | 6.34
CCCCOC[C@H]1CCCC[C@H]1COCCCC(=O)C(F)(F)F | 6.11 | 5.24
CCc1cc2cc3ccccc3cc2cc1CC(=O)C(F)(F)F | < 4.00 | < 4.00
CCCCc1cc2ccccc2cc1CCCC(=O)C(F)(F)F | 5.36 | 4.52
CCCCCCCCCC(=O)C(F)(F)F | 6.89 | 6.22
CCCCCCCCCCCC(=O)C(F)(F)F | 6.85 | 6.89
CCCCCCCC/C=C\CCCCCCCC(C)=O | < 4.00 | < 4.00
CCCCCCCCCCCCCCCCCC(=O)C(F)(F)F | 6.62 | 5.92
CCCCCCCc1ccc(CCCCCCC(=O)C(F)(F)F)cc1 | 7.02 | 6.23
